Among the test systems are Malme-3M; U-251; SR; SNB-75; LOX IMVI; HCC 2998; HL-60; M14; BT-549; OVCAR-5; COLO 205; 786-0; PC-3; RPMI-8226; Hs-578T; NCI-H23; OVCAR-4; A498; T47D; NCI-H226.
Experiment in all cases: growth of human tumour cells (NCI), 48 h

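Where inhibition never reached the appropriate level, the endpoint shown equals the highest concentration tested. Otherwise, values were interpolated linearly from a five-concentration, 48-hour dose response in 96-well plates. GI50 = concentration required for 50% inhibition of growth.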 Active and inactive are the calls of the source. Cut-off read from the data, not from the text of the source: active = GI50 up to about 1.1 µM and inactive = higher.

With `C=CCCC1(CCP(=O)(c2ccccc2)c2ccccc2)OCCO1`, the GI50 with Malme-3M, in the assay with U-251, with SR, in the assay with SNB-75, in the assay with LOX IMVI and with HCC 2998 was > 100 µM (inactive) throughout. Also, the GI50 in the assay on HL-60, in the assay with M14, in the assay with BT-549, with OVCAR-5, with COLO 205 and with 786-0 was > 100 µM (inactive) each time. Also, the GI50 with PC-3, in the assay on RPMI-8226, with Hs-578T and in the assay on NCI-H23 was > 100 µM (inactive) each time.

`COc1c(C)c(C/C=C(\C)CC/C=C(\C)CCC=C(C)C)c(OC)c(OC)c1OC`: the GI50 in the assay with U-251 was > 100 µM (inactive); in the assay on SR, 66.4 µM (inactive); in the assay with SNB-75, > 100 µM (inactive); in the assay with LOX IMVI, 76.6 µM (inactive); with HCC 2998 it was 54.6 µM (inactive); in the assay on M14, > 100 µM (inactive). Moreover, the GI50 with BT-549, with OVCAR-4, in the assay on OVCAR-5, in the assay with COLO 205, in the assay with 786-0 and in the assay with PC-3 was > 100 µM (inactive) each time. The GI50 with Hs-578T and with NCI-H23 was > 100 µM (inactive) in each case.

As to `COc1nc(C)nc2c1ncn2Cc1ccccc1`, the GI50 in the assay with Malme-3M, with U-251, in the assay on SR, in the assay on SNB-75, with LOX IMVI and with HCC 2998 was > 100 µM (inactive) each time. Also, the GI50 in the assay with HL-60, in the assay with M14, in the assay with A498, with T47D, with OVCAR-4 and with OVCAR-5 was > 100 µM (inactive) each time. For the same compound, the GI50 is > 100 µM (inactive) in the assay on COLO 205; > 100 µM (inactive) in the assay with 786-0; > 100 µM (inactive) in the assay with PC-3; > 100 µM (inactive) with NCI-H226; > 100 µM (inactive) with RPMI-8226; 99.8 µM (inactive) with Hs-578T. Also, in the assay on NCI-H23, the GI50 is > 100 µM (inactive).

For `O=c1[nH]c2ccc(CC(=S)N3CCN(c4ccccc4)CC3)cc2s1`, the GI50 with Malme-3M is 13.5 µM (inactive); in the assay on U-251 it was 3.95 µM (inactive); in the assay on SR it was 19.9 µM (inactive); with LOX IMVI, 67 µM (inactive); with HL-60, > 100 µM (inactive); with M14 it was 23.1 µM (inactive). For the same compound, the GI50 in the assay on A498 was 62.2 µM (inactive); in the assay on BT-549, 26.6 µM (inactive); in the assay with OVCAR-5 it was 15.7 µM (inactive); with COLO 205 it was 57.1 µM (inactive); with 786-0, 34.4 µM (inactive); with PC-3, 18.3 µM (inactive). The GI50 in the assay on NCI-H226 is 14.3 µM (inactive); with RPMI-8226, 12.7 µM (inactive); with Hs-578T, 13.8 µM (inactive); in the assay on NCI-H23, 20.7 µM (inactive).

With `CC(=O)C(C(C)=O)[C@@H]1OC(C)(C)O[C@@H]1[C@H]1COC(C)(C)O1`, the GI50 is 22.5 µM (inactive) with Malme-3M; 42.8 µM (inactive) with U-251; 38.8 µM (inactive) in the assay on SR; 87.1 µM (inactive) in the assay on LOX IMVI; > 100 µM (inactive) in the assay with HCC 2998; 26.6 µM (inactive) in the assay on HL-60. Further, the GI50 in the assay with M14 was 47.4 µM (inactive); with A498, 93.3 µM (inactive); in the assay with BT-549, 34.9 µM (inactive); with OVCAR-4, 51.1 µM (inactive); in the assay with OVCAR-5, 87.9 µM (inactive); with COLO 205 it was 43.5 µM (inactive). Further, the GI50 with 786-0 was 32.1 µM (inactive); in the assay on PC-3 it was 43.6 µM (inactive); in the assay with NCI-H226, > 100 µM (inactive); with RPMI-8226, 34.7 µM (inactive); in the assay on Hs-578T it was 28.4 µM (inactive); in the assay with NCI-H23 it was 34 µM (inactive).

In the case of `C=C1C(C)C2C(Cc3ccccc3)NC(=O)C23C(OC(C)=O)/C=C/C(C)(O)CC(C)C/C=C/C3C1O` (stereo unspecified), the GI50 in the assay with Malme-3M is 28.4 µM (inactive); with U-251, 0.0679 µM (active); in the assay with SR, 27.5 µM (inactive); in the assay on SNB-75, 0.014 µM (active); in the assay with LOX IMVI, 0.0593 µM (active); with HCC 2998, 16.1 µM (inactive). For the same compound, the GI50 in the assay on HL-60 is 5.02 µM (inactive); in the assay with M14 it was 99.1 µM (inactive); in the assay on A498, 0.117 µM (active); in the assay with BT-549, 2.67 µM (inactive); with T47D, > 100 µM (inactive); with OVCAR-4, 0.904 µM (active). Further, the GI50 in the assay with OVCAR-5 is 70.6 µM (inactive); in the assay on COLO 205 it was 0.104 µM (active); in the assay with 786-0 it was 0.632 µM (active); in the assay with NCI-H226 it was 0.728 µM (active); in the assay on RPMI-8226 it was 9.42 µM (inactive); with Hs-578T, 0.0129 µM (active). Moreover, in the assay on NCI-H23, the GI50 was 13.8 µM (inactive).

For the compound `c1cc(-c2ccc(-c3nc4ccc(C5=NCCN5)cc4s3)s2)ccc1C1=NCCN1`, the GI50 in the assay with Malme-3M was 1.02 µM (active); in the assay on U-251 it was 0.222 µM (active); with SR, 0.231 µM (active); in the assay on SNB-75, 0.222 µM (active); in the assay with LOX IMVI, 0.262 µM (active); in the assay on HCC 2998, 0.0292 µM (active). In addition, the GI50 is 0.394 µM (active) in the assay on HL-60; 0.912 µM (active) with M14; 0.719 µM (active) in the assay with A498; 1.23 µM (inactive) with BT-549; 0.483 µM (active) with T47D; 0.182 µM (active) with OVCAR-4. Moreover, the GI50 with OVCAR-5 was 0.444 µM (active); with COLO 205 it was 1.11 µM (active); with 786-0, 0.156 µM (active); in the assay with PC-3, 0.805 µM (active); in the assay with NCI-H226, 0.308 µM (active); with RPMI-8226, 0.295 µM (active). Besides, the GI50 in the assay with NCI-H23 is 0.813 µM (active).

With `C=C(C)[C@@H]1CC[C@]2(CO)CC[C@]3(C)[C@H](CC[C@@H]4[C@@]5(C)CC[C@H](O)C(C)(C)[C@@H]5CC[C@]43C)[C@@H]12` [BETULIN], the GI50 with Malme-3M is 52.5 µM (inactive); in the assay on U-251, 11.8 µM (inactive); in the assay on SR, 43 µM (inactive); in the assay on SNB-75, 12.7 µM (inactive); in the assay on LOX IMVI, 14.6 µM (inactive); in the assay on HL-60 it was 34 µM (inactive). Besides, the GI50 with M14 was 51.1 µM (inactive); with A498, 21.5 µM (inactive); in the assay on BT-549, 17.6 µM (inactive); with T47D, 61.4 µM (inactive); in the assay with OVCAR-5 it was 55.7 µM (inactive); with 786-0 it was 13.6 µM (inactive). Also, the figures for the GI50 in the assay on PC-3, with NCI-H226 and with NCI-H23 were 30.2 µM (inactive), 39 µM (inactive) and 94.8 µM (inactive), respectively.
